Assay results from ChEMBL document CHEMBL1141185, “4,6-Disubstituted 2,2-dimethylchromans structurally related to the K(ATP) channel opener cromakalim: design, synthesis, and effect on insulin release and vascular tone” (J Med Chem, 2005).

Columns and labels:
Type in all cases: functional
[1] = species: Rattus norvegicus; test: Percentage of residual insulin secretion value in the pancreatic islets of rat after treatment with the compound at 10 uM concentration
[2] = species: Rattus norvegicus; test: Myorelaxant activity of the compound against insulin secretion in the pancreatic islets ofrat; (activity expressed as ED50); conditions: read-out: ED50 (the source's name)
[3] = species: Rattus norvegicus; test: Inhibitory concentration against rat vascular smooth muscle tissue
[4] = species: Rattus norvegicus; test: Myorelaxant effect of the compound on 30 mM KCl induced rat aorta rings determined after incubated with the 10 uM glibenclamide in the medium; (activity expressed as ED50); conditions: read-out: ED50 (the source's name)
[5] = species: Rattus norvegicus; test: Myorelaxant effect of the compound on 30 mM KCl induced rat aorta rings determined after incubated with the 0 uM glibenclamide in the medium; (activity expressed as ED50); conditions: read-out: ED50 (the source's name)
[6] = species: Rattus norvegicus; test: Myorelaxant effect of the compound on 30 mM KCl induced rat aorta rings determined after incubated with the 1 uM glibenclamide in the medium; (activity expressed as ED50); conditions: read-out: ED50 (the source's name)
[7] = species: Rattus norvegicus; test: Myorelaxant effect of the compound on 80 mM KCl induced rat aorta rings determined; (activity expressed as ED50); conditions: read-out: ED50 (the source's name)
[8] = species: Rattus norvegicus; test: Myorelaxant effect on 30 mM KCl induced rat aorta rings determined after incubated with the 10 uM glibenclamide in the medium; (activity expressed as ED50); conditions: read-out: ED50 (the source's name)
[9] = species: Rattus norvegicus; test: Myorelaxant effect on 30 mM KCl induced rat aorta rings determined after incubated with the 1 uM glibenclamide in the medium; (activity expressed as ED50); conditions: read-out: ED50 (the source's name)
[10] = species: Rattus norvegicus; test: Myorelaxant effect on 30 mM KCl induced rat aorta rings determined; (activity expressed as ED50); conditions: read-out: ED50 (the source's name)
[11] = species: Rattus norvegicus; test: Myorelaxant effect on 80 mM KCl induced rat aorta rings determined; (activity expressed as ED50); conditions: read-out: ED50 (the source's name)

| Compound | EC50 [2] [µM] | Residual secretion [1] [%] | other results |
| --- | --- | --- | --- |
| Cc1ccc(S(=O)(=O)NC(=O)NC2CC(C)(C)Oc3ccc(Cl)cc32)cc1 (stereo not given) | 63.6 | 103.5 |  |
| CC1(C)CC(NC(=S)NCc2ccccc2)c2cc(Br)ccc2O1 (stereo not given) | 24.8 | 51.8 |  |
| CC(C)NC(=O)NC1CC(C)(C)Oc2ccc(Br)cc21 (stereo not given) | > 300 | 79.1 |  |
| CC(C)NC(=O)NC1CC(C)(C)Oc2ccc(F)cc21 (stereo not given) | 109 | 98.4 |  |
| CC(=O)NC1CC(C)(C)Oc2ccc(F)cc21 (stereo not given) | 46.5 | 83.8 |  |
| CCNC(=O)NC1CC(C)(C)Oc2ccc(F)cc21 (stereo not given) | 42.9 | 106.2 |  |
| CCOC(=O)NC1CC(C)(C)Oc2ccc(Br)cc21 (stereo not given) | 25.7 | 88.8 |  |
| CC1(C)CC(NC(=O)NCc2ccccc2)c2cc(Br)ccc2O1 (stereo not given) | > 300 | 58.5 |  |
| CC1(C)CC(NC(=O)NCc2ccccc2)c2cc(F)ccc2O1 (stereo not given) |  | 80.8 |  |
| CC1(C)CC(NC(=O)NS(=O)(=O)c2ccc(Cl)cc2)c2cc(Cl)ccc2O1 (stereo not given) | 51 | 89.2 |  |
| CCOC(=O)NC1CC(C)(C)Oc2ccc(F)cc21 (stereo not given) | 72.4 | 100.8 |  |
| CCOC(=O)NC1CC(C)(C)Oc2ccc(Cl)cc21 (stereo not given) | 38.5 | 83.3 |  |
| CC(C)NC(=O)NC1CC(C)(C)Oc2ccc(Cl)cc21 (stereo not given) | 144 | 86.3 |  |
| CC1(C)CC(NC(=O)NS(=O)(=O)c2ccccc2)c2cc(Cl)ccc2O1 (stereo not given) | 210 | 94.7 |  |

Further molecules by falling EC50 [2], results first:

| EC50 [2] [µM] | Compound | Residual secretion [1] [%] | other results |
| --- | --- | --- | --- |
| 23.8 | CC1=Nc2ccc(Cl)cc2S(=O)(=O)N1 [DIAZOXIDE] | 71.7 | IC50 [3]: 23.8 µM |
| 20.2 | CC1(C)CC(NC(=S)NCc2ccccc2)c2cc(Cl)ccc2O1 (stereo not given) | 45.4 |  |
| 18.5 | CC(C)NC(=S)NC1CC(C)(C)Oc2ccc(F)cc21 (stereo not given) | 88.7 |  |
| 17.6 | CCNC(=S)NC1CC(C)(C)Oc2ccc(F)cc21 (stereo not given) | 82.5 |  |
| 15.3 | CC1(C)CC(NC(=O)NCc2ccccc2)c2cc(Cl)ccc2O1 (stereo not given) | 67.1 |  |
| 10.9 | CC(C)NC(=S)NC1CC(C)(C)Oc2ccc(Cl)cc21 (stereo not given) | 83.3 |  |
| 8.7 | CC(C)NC(=S)NC1CC(C)(C)Oc2ccc(Br)cc21 (stereo not given) | 58.9 |  |
| 8.2 | CCNC(=S)NC1CC(C)(C)Oc2ccc(Cl)cc21 (stereo not given) | 96.5 |  |
| 7.6 | CCNC(=O)NC1CC(C)(C)Oc2ccc(Br)cc21 (stereo not given) | 91.5 |  |
| 6.8 | CCNC(=O)NC1CC(C)(C)Oc2ccc(Cl)cc21 (stereo not given) | 89.5 |  |
| 6.6 | CC(=O)NC1CC(C)(C)Oc2ccc(Cl)cc21 (stereo not given) | 100.8 | EC50 [8]: 44.6 µM; EC50 [9]: 33.8 µM; EC50 [10]: 6.3 µM; EC50 [11]: 84.2 µM |
| 6.4 | CC(=O)NC1CC(C)(C)Oc2ccc(Br)cc21 (stereo not given) | 94.2 |  |
| 4.3 | CC1(C)CC(NC(=S)NCc2ccccc2)c2cc(F)ccc2O1 (stereo not given) | 54.4 |  |
| 3.7 | CCNC(=S)NC1CC(C)(C)Oc2ccc(Br)cc21 (stereo not given) | 80.8 |  |
| 0.35 | CC(N/C(=N\C#N)Nc1ccncc1)C(C)(C)C (stereo not given) [PINACIDIL ANHYDROUS] | 96 | IC50 [3]: 0.35 µM |
| 0.13 | CC1(C)Oc2ccc(C#N)cc2C(N2CCCC2=O)C1O (stereo not given) [CROMAKALIM] | 94.7 | EC50 [4]: 15.2 µM; EC50 [5]: 0.14 µM; IC50 [3]: 0.13 µM; EC50 [6]: 1.8 µM; EC50 [7]: > 300 µM |
